Legend:
Test in all cases: biochemical
Parameters in all cases: species or system HEK293/K-562/placenta mixed human extract; Kinobeads chemoproteomic competition binding, quantified by TMT LC-MS/MS, dose response up to 20 uM
MINK1 = MINK1 (Homo sapiens, UniProt Q8N4C8)
MKNK2 = MKNK2 (Homo sapiens, UniProt Q9HBH9)
AURKC = AURKC (Homo sapiens, UniProt Q9UQB9)
SIK1 = SIK1 (Homo sapiens, UniProt P57059)
STK38L = STK38L (Homo sapiens, UniProt Q9Y2H1)
BUB1 = BUB1 (Homo sapiens, UniProt O43683)
PAK6 = PAK6 (Homo sapiens, UniProt Q9NQU5)
PDIK1L = PDIK1L (Homo sapiens, UniProt Q8N165)
PDIK1L, sequence (Q8N165 whole entry): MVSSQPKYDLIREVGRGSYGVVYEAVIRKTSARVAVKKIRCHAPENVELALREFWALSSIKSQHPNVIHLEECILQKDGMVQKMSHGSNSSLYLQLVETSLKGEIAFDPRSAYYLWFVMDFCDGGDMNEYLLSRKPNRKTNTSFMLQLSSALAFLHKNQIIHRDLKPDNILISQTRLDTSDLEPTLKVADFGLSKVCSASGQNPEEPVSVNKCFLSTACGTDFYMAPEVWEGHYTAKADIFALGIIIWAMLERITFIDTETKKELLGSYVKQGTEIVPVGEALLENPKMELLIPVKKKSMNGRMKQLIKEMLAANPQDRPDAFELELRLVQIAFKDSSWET

CDC42BPG = CDC42BPG (Homo sapiens, UniProt Q6DT37)
CSNK1A1 = CSNK1A1 (Homo sapiens, UniProt P48729)
CSNK1A1, sequence (P48729 whole entry): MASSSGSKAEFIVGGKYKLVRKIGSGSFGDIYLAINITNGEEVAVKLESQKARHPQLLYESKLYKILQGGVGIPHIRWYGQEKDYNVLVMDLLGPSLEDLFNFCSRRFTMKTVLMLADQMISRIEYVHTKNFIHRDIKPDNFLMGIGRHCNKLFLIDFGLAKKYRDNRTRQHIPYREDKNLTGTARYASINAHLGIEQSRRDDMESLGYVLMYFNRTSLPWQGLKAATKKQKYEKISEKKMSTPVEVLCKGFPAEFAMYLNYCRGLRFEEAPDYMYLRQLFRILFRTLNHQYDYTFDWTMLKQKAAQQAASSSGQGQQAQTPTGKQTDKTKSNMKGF

STK38 = STK38 (Homo sapiens, UniProt Q15208)
STK38, sequence (Q15208 whole entry): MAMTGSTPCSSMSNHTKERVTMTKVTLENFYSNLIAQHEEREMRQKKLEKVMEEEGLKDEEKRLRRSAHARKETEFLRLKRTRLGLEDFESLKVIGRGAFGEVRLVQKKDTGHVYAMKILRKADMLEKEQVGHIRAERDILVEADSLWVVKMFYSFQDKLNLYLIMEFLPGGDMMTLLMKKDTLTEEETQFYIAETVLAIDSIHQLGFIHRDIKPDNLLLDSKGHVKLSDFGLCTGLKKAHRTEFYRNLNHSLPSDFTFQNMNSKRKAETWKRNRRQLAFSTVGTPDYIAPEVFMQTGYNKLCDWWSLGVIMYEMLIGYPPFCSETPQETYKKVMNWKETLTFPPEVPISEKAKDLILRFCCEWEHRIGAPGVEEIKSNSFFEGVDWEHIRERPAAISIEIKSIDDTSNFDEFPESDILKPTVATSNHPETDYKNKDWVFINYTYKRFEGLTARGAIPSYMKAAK

PIM1 = PIM1 (Homo sapiens, UniProt P11309)
SNRK = SNRK (Homo sapiens, UniProt Q9NRH2)
DDR1 = DDR1 (Homo sapiens, UniProt Q08345)
DDR1, sequence (Q08345 whole entry): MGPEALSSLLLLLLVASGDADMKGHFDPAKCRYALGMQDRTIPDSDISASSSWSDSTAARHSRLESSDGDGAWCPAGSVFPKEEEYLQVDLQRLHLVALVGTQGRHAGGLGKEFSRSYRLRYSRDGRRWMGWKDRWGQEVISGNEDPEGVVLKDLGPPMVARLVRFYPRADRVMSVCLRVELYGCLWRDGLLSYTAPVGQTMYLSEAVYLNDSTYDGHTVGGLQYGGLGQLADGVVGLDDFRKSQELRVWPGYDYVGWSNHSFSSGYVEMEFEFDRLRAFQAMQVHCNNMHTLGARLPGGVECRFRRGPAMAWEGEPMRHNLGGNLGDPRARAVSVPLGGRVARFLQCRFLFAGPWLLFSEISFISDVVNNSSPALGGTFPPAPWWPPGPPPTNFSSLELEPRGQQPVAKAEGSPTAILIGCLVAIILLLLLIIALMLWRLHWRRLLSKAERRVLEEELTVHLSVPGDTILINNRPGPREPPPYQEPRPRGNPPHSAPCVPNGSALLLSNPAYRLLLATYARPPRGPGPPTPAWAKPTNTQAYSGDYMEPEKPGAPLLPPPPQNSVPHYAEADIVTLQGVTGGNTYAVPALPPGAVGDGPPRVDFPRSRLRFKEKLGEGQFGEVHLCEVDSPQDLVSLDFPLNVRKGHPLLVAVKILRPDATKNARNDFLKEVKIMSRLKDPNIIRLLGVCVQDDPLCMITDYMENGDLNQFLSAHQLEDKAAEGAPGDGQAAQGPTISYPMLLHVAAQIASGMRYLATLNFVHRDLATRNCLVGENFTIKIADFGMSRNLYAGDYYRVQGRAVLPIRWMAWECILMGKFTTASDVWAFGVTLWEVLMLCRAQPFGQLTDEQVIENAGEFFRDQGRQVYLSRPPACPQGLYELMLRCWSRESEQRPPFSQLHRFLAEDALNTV

SYK = SYK (Homo sapiens, UniProt P43405)
RPS6KA4 = RPS6KA4 (Homo sapiens, UniProt O75676)
AURKB = AURKB (Homo sapiens, UniProt Q96GD4)
AURKB, sequence (Q96GD4 whole entry): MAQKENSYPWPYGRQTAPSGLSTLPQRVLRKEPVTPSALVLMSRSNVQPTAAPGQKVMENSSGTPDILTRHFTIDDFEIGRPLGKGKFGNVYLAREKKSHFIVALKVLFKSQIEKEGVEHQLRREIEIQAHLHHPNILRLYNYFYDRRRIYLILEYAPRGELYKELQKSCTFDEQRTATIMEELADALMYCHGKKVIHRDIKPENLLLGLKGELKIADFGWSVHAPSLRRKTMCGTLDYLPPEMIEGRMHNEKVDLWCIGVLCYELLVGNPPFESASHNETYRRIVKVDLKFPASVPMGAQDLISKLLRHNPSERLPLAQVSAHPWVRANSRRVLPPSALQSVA

JAK1 = JAK1 (Homo sapiens, UniProt P23458)
JAK1, sequence (P23458 whole entry): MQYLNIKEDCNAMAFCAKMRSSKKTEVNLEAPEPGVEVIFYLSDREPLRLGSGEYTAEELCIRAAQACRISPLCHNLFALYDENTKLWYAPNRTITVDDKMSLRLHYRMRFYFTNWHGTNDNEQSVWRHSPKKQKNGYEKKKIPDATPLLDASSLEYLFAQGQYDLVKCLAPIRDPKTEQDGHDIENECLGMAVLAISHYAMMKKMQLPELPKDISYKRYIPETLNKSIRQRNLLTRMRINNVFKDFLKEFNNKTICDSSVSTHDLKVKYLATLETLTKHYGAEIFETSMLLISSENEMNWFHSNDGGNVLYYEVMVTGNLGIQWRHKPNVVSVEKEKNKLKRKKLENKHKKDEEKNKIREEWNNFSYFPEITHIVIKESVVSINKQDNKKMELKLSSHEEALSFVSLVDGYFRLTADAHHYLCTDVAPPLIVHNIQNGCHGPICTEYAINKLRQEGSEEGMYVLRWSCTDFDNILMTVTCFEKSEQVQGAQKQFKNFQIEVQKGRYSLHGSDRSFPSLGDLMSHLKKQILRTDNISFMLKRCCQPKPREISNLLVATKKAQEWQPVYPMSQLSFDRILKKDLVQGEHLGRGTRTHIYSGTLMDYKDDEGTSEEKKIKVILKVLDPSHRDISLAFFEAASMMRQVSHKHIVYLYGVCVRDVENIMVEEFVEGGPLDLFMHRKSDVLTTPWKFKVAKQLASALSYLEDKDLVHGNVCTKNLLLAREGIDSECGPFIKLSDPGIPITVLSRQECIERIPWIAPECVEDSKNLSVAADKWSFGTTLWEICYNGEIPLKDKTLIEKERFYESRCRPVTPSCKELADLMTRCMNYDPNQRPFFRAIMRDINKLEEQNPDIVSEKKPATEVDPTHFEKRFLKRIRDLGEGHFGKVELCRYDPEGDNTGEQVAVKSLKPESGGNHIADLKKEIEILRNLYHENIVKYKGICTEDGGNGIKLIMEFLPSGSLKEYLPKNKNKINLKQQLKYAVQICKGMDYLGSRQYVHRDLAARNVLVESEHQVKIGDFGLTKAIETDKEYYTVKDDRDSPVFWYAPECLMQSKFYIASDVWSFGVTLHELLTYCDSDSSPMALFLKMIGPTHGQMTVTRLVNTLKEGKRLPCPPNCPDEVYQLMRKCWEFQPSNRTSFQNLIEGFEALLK

TNK2 = TNK2 (Homo sapiens, UniProt Q07912)
MAP2K5 = MAP2K5 (Homo sapiens, UniProt Q13163)
MAP2K5, sequence (Q13163 whole entry): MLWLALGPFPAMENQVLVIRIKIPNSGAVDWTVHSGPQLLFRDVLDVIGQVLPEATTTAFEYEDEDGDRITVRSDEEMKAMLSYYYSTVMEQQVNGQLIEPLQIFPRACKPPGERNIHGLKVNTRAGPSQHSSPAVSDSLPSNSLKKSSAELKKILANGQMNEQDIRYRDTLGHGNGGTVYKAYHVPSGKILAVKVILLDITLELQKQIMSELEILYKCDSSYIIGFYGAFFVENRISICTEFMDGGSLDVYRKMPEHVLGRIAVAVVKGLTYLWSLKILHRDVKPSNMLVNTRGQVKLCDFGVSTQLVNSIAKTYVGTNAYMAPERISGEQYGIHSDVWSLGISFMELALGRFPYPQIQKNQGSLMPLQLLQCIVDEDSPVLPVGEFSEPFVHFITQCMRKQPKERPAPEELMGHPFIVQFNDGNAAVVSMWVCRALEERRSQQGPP

GSK3A = GSK3A (Homo sapiens, UniProt P49840)
GSK3A, sequence (P49840 whole entry): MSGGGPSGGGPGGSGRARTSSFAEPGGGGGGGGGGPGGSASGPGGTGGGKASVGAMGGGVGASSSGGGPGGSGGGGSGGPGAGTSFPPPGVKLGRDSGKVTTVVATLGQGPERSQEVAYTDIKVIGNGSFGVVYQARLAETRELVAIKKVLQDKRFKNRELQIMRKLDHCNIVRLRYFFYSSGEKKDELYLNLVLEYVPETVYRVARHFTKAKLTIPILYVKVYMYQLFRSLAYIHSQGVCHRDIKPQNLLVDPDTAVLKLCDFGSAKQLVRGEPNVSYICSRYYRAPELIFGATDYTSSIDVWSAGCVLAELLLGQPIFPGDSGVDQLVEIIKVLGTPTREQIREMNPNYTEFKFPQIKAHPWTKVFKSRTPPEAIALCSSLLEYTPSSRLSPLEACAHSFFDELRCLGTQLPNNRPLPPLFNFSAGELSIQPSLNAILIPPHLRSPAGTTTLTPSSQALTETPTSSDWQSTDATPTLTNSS

Measured: IC50

MKNK2, sequence (Q9HBH9 whole entry): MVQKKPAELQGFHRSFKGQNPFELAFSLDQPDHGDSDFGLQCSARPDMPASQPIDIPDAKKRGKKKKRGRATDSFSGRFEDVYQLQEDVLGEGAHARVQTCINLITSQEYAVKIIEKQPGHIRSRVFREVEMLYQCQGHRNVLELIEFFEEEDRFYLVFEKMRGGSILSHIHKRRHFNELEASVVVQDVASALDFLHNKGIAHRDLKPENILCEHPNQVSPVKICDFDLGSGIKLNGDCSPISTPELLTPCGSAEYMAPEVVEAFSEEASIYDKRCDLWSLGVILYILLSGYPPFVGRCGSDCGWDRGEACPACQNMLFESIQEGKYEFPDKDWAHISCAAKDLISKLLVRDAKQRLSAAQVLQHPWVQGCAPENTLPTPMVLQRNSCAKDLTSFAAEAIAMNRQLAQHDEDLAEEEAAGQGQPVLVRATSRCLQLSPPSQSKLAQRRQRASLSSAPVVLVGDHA

COc1ccccc1-c1n[nH]c2nc(N[C@H]3CC[C@H](NS(=O)(=O)CCC(F)(F)F)CC3)nc(OC)c12 [compound 31, 3,3,3-Trifluoro-N-(trans-4-((4-methoxy-3-(2-methoxyphenyl)-1H-pyrazolo[3,4-d]pyrimidin-6-yl)amino)cyclohexyl)propane-1-sulfonamide]
≥ 20 µM: all assays above
